Measurements from patent US7892350B2, “Sacrificial agents for fly ash concrete” (Boral Material Technologies Inc., priority 2003, dated 2011).
Where “and” joins values, the source holds several entries; their conditions need not be identical. Equal values may be shown once.

What was measured:
[1] = Paste air entrainment, Minimum air protocol; conditions: for Average of air entrained: over the fly ash:PCA pastes of Table 7
Protocol: Preparation of pastes: Pastes were prepared by pouring 400 g of cementitious powder in the 350-400 g of solution (water and additives) in a vessel (8.4 cm dia,×14.5 cm height) while gently stirring with a spatula; the exact quantity of water depends on the selected W/B ratio (see below); rapid hand mixing was continued for 1 minute, followed by intense stirring at 25° C. during 2 min using a hand-held mixer (BRAUN model MR400). The level of air entrained is dependent on the mode of utilisation of the mixer, namely the height of the mixer from the bottom of the vessel and the length of the mixing stroke; the following protocols were adopted.
Minimum air protocol: The BRAUN mixer is positioned at 1.0 inch from the bottom of the mixing vessel and the up-down motion of the mixer is limited to a 1.0 inch displacement; this provided ‘minimum air’ entrained air levels and is later referred to as ‘Minimum air protocol’ (Results reported in Table 6, col. 1 and Table 7).
Fluidity measurements: For all air entrainment measurements, the initial fluidity of the paste (without additives) was controlled using the ‘mini-slump’ procedure widely used for paste and grouts. In this protocol, a portion of the paste was transferred into the min-slump cone (a 2¼″ high, 1½″ bottom diameter, ¾″ top diameter cone); excess paste was skimmed-off with a straight; the cone was then raised and the spread diameter of the paste was recorded (average of two measurements). The fluidity is measured at 10 minutes after mixing. The paste is returned to the batch and reserved for subsequent AE measurements. The fluidity of the paste (without SA and AEA) is adjusted by changing the amount of water (water/cementitious ratio) which yields a spread diameter of 115±5 mm. The latter is monitored regularly.
Air entrainment measurements: For air entrainment measurements, a portion of the paste was transferred to overfill a Plexiglas cylinder (3¾ inches height, 2 inches interior diameter), which was then levelled flush to the top of the cylinder with a straight edge. The mass of the filled cylinder, minus the weight of the empty cylinder, is then recorded and used to calculate the amount of air according to the following formula: […]
This procedure was carried out at three times at 30 min. intervals (6, 36 and 66 min); the paste was let to stand at rest between measurements, and was stirred gently by hand for one minute prior to the subsequent air entrainment measurements.
Typical mixture compositions for air entrainment measurements in pastes containing a single additive using ‘Minimum air protocol’ (results shown in Table 6, col. 1): […]

[2] = Air entrainment in fresh concrete (ASTM C 231-97); conditions: for Air: PCC cement concrete, no fly ash, no Air 40
Protocol: The sacrificial agents were added to the cementitious mixtures in several ways: • 1) mixing together with water and air entrainment agent solution • 2) premixed with the fly ash • 3) post-added into the fresh concrete which already contained the air entrainment agent.

[3] = Adsorption/precipitation of SA or AEA in 10 wt % aqueous fly ash or cement slurries at pH 12.5; assay type: physicochemical; conditions: initial SA 3 mM
Protocol: Adsorption/Precipitation of Sacrificial Agents (SA) or Air Entrainment Agents (AEA) in 10 wt % Aqueous Fly Ash Slurries at pH 12.5:
(§1) The pH of the solutions were adjusted to 12.5 with NaOH.
Adsorption/Precipitation in FA or Cement Slurries: In this protocol, aqueous slurries containing 10 wt % FA or cement were prepared as described above, except that in this case, the cement was added directly into a solution of the SA or AEA in the following proportions: 3.0 g cement or FA, and 27 g of 3 mM sacrificial agent, or 27 g of 1050 mg/l AEA; the latter were prepared in the same way as in the precipitation test above. The residual (soluble) SA or AEA content in the solution was also determined by UV or COD.

[4] = Precipitation in slurry extract or leachate; assay type: physicochemical; conditions: pH 12.5, entries in parentheses
Protocol: as §1
Precipitation in slurry extract or leachate: To perform this test, FA or cement leachate were prepared in advance, by filtering two liters of a 10 wt % FA, or cement, slurry in 0.03N NaOH which had been left to stand under slow agitation for 30 min; 2.5 g of the filtrate solution was mixed with 22.5 g of the SA or AEA solution in a 50 ml polypropylene centrifuge tube; the latter was shaken vigorously in an orbital shaker (Eberbach Corporation) for 30 min at room temperature, centrifuged for 5 min and then the supernatant solution was filtered (0.45 μm). The SA or AEA content of the solution was determined using an Ultraviolet-Visible (UV) spectrometer or by COD (Chemical Oxygen Demand) measurement.
Entries in parentheses: % precipitation when reacted with solutions extracted from the fly ash slurries (Results in Table 5).

[5] = Paste air entrainment, Maximum air protocol; conditions: for Air entrained at 66 min: Air 30 (0.0125 wt %)/X/ButOH=1/4/4, X = the labelled sulfonated SA; for Air entrained: PCA cement paste, 0.0125% SA or AEA alone, Maximum air protocol
Method in brief: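 Pastes of 400 g cementitious powder in water plus additives, hand-mixed 1 min then mixer-stirred 2 min at 25 °C; water/binder ratio set so additive-free paste gives 115±5 mm mini-slump spread at 10 min. Air content calculated from mass of paste filling a fixed-volume cylinder at 6, 36 and 66 min, paste at rest between readings and hand-stirred 1 min beforehand.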

[6] = 50:50 fly ash B1 (LOI 4.36%):PCA paste, 0.1 wt % Air 30 alone or with 0.05 wt % of the SA
[7] = 50:50 fly ash C1 (LOI 1.62%):PCA paste, 0.1 wt % Air 30 alone or with 0.05 wt % of the SA
[8] = 50:50 fly ash D (LOI […]):PCA paste, 0.1 wt % Air 30 alone or with 0.05 wt % of the SA
[9] = 50:50 fly ash M1 (LOI […]):PCA paste, 0.1 wt % Air 30 alone or with 0.05 wt % of the SA
[10] = 50:50 fly ash M2 (LOI 5.34%):PCA paste, 0.1 wt % Air 30 alone or with 0.05 wt % of the SA
[11] = 50:50 fly ash M3 (LOI 11.33%):PCA paste, 0.1 wt % Air 30 alone or with 0.05 wt % of the SA
[12] = 50:50 fly ash R (LOI […]):PCA paste, 0.1 wt % Air 30 alone or with 0.05 wt % of the SA
[13] = PCA cement paste, 0.1% SA or AEA alone, Minimum air protocol
[14] = 0.1 wt % Air 30 alone or with 0.05 wt % of the SA
[15] = 10 wt % fly ash B1 (LOI 4.36%) slurry, Air 30/Air 40 0.105 wt %
[16] = 10 wt % fly ash C1, class C (LOI 1.62%) slurry, Air 30/Air 40 0.105 wt %
[17] = 10 wt % fly ash C2 (LOI 3.32%) slurry
[18] = 10 wt % fly ash M1 (LOI […]) slurry, Air 30/Air 40 0.105 wt %
[19] = 10 wt % fly ash M2 (LOI 5.34%) slurry, Air 30/Air 40 0.105 wt %
[20] = 10 wt % fly ash M3 (LOI 11.33%) slurry, Air 30/Air 40 0.105 wt %
[21] = 10 wt % fly ash N (LOI 0.30%) slurry
[22] = solution extracted from 10 wt % fly ash B1 (LOI 4.36%) slurry
[23] = solution extracted from 10 wt % fly ash C1, class C (LOI 1.62%) slurry
[24] = solution extracted from 10 wt % fly ash C2 (LOI 3.32%) slurry
[25] = solution extracted from 10 wt % fly ash M1 (LOI […]) slurry
[26] = solution extracted from 10 wt % fly ash M2 (LOI 5.34%) slurry
[27] = solution extracted from 10 wt % fly ash M3 (LOI 11.33%) slurry
[28] = solution extracted from 10 wt % fly ash N (LOI 0.30%) slurry
[29] = 50:50 fly ash B1 (LOI 4.36%):PCA paste
[30] = 50:50 fly ash D (LOI […]):PCA paste
[31] = 50:50 fly ash M2 (LOI 5.34%):PCA paste

Row | Compound | Air entrained [1, 6] [vol %] | Air entrained [1, 7] [vol %] | Air entrained [1, 8] [vol %] | Air entrained [1, 9] [vol %] | Air entrained [1, 10] [vol %] | Air entrained [1, 11] [vol %] | Air entrained [1, 12] [vol %] | Air entrained [1, 13] [vol %] | Average of air entrained [1, 14] [%] | Adsorption (wt % Adsorbed) [3, 15] [wt %] | Adsorption (wt % Adsorbed) [3, 16] [wt %] | Adsorption (wt % Adsorbed) [3, 17] [wt %] | Adsorption (wt % Adsorbed) [3, 18] [wt %] | Adsorption (wt % Adsorbed) [3, 19] [wt %] | Adsorption (wt % Adsorbed) [3, 20] [wt %] | Adsorption (wt % Adsorbed) [3, 21] [wt %] | Precipitation (wt % precipitated) [4, 22] [wt %] | Precipitation (wt % precipitated) [4, 23] [wt %] | Precipitation (wt % precipitated) [4, 24] [wt %] | Precipitation (wt % precipitated) [4, 25] [wt %] | other results
1 | Sodium Di-isopropopyl naphthalene sulfonate [ND] | 4 | 4 | 3 | 5 | 4 | 4 | 3 | 3 | 4 | 14 | 84 | 17 | 27 | 13 | 18 | 26 | 0 | 31 | 0 | 0 | Air ([2]; ND alone 0.001 % CM): 2.3%; Air ([2]; ND alone 0.003 % CM): 4.1% and 3.1%; Air ([2]; ND alone 0.005 % CM): 4.6% and 4.8%; Air ([2]; ND alone 0.010 % CM): 4.6%; Air ([2]; ND alone 0.020 % CM): 3.9%; Air ([2]; ND alone 0.030 % CM): 3.8%; Air ([2]; ND alone 0.040 % CM): 3.9%; increase in air entrained above the control values ([2]; cement-only concrete without air entrainment agents, various dosages): 2-3%; Precipitation (wt % precipitated) [4, 26]: 0 wt %; Precipitation (wt % precipitated) [4, 27]: 0 wt %; Precipitation (wt % precipitated) [4, 28]: 0 wt %; Air entrained at 66 min [5, 29]: 17 vol %; Air entrained at 66 min [5, 30]: 24 vol %; Air entrained at 66 min [5, 31]: 11 vol %; Air entrained [5]: 7 vol %; Air entrained at 66 min ([5]; PCA paste, no fly ash): 23 vol %; air entrained (average) ([5]; fly ash:cement pastes, SA added at four (4) times the fixed Air 30 dosage (0.0125%)): 14%
2 | O=S(=O)([O-])c1ccc2ccccc2c1.[Na+] [NS, Sodium 2-Naphthalene sulfonate] | 4 | 12 | 6 | 4 | 3 | 4 | 6 | 0 | 5 | 8 | 70 | 5 | 11 | 8 | 10 | 5 | 0 | 10 | 0 | 0 | Adsorption (wt % Adsorbed) ([3]; 10 wt % PCA cement slurry, Air 30/Air 40 0.105 wt %): 3 wt %; Adsorption (wt % Adsorbed) ([3]; 10 wt % fly ash D, class C (LOI […]) slurry, Air 30/Air 40 0.105 wt %): 59 wt %; Adsorption (wt % Adsorbed) ([3]; 10 wt % fly ash R (LOI […]) slurry, Air 30/Air 40 0.105 wt %): 24 wt %; Precipitation (wt % precipitated) ([4]; solution extracted from 10 wt % PCA cement slurry): 1 wt %; Precipitation (wt % precipitated) ([4]; solution extracted from 10 wt % fly ash D, class C (LOI […]) slurry): 1 wt %; Precipitation (wt % precipitated) [4, 26]: 0 wt %; Precipitation (wt % precipitated) [4, 27]: 0 wt %; Precipitation (wt % precipitated) [4, 28]: 0 wt %; Precipitation (wt % precipitated) ([4]; solution extracted from 10 wt % fly ash R (LOI […]) slurry): 0 wt %; Air entrained at 66 min [5, 29]: 7 vol %; Air entrained at 66 min [5, 30]: 18 vol %; Air entrained at 66 min [5, 31]: 5 vol %; Air entrained [5]: 2 vol %; Air entrained at 66 min ([5]; PCA paste, no fly ash): 13 vol %
